The record followed here is patent publication US10584134B2, “Use of physiological cooling active ingredients, and agents containing such active ingredients” (SYMRISE AG, priority 2009, dated 2020).

The target in the test is human TRPM8 receptor (Homo sapiens (Human), UniProt Q7Z2W7). In words: Assay on TRPM8 modulators (Ca2+-sensitive dye, HEK293-TRPM8 test cells, EC50 determination). It is filed as cell-based. The following applies: assay according to reference example 3. The text has this: As a test cell system the human TRPM8 DNA (see plasmid pInd-M8 above) was used to prepare a stable transfixed HEK293 cell line. Here preference is for HEK293 which via the plasmid introduced offers the possibility of induction of the TRPM8 expression by means of tetracycline.
Sequence of human TRPM8 receptor (Q7Z2W7 whole entry): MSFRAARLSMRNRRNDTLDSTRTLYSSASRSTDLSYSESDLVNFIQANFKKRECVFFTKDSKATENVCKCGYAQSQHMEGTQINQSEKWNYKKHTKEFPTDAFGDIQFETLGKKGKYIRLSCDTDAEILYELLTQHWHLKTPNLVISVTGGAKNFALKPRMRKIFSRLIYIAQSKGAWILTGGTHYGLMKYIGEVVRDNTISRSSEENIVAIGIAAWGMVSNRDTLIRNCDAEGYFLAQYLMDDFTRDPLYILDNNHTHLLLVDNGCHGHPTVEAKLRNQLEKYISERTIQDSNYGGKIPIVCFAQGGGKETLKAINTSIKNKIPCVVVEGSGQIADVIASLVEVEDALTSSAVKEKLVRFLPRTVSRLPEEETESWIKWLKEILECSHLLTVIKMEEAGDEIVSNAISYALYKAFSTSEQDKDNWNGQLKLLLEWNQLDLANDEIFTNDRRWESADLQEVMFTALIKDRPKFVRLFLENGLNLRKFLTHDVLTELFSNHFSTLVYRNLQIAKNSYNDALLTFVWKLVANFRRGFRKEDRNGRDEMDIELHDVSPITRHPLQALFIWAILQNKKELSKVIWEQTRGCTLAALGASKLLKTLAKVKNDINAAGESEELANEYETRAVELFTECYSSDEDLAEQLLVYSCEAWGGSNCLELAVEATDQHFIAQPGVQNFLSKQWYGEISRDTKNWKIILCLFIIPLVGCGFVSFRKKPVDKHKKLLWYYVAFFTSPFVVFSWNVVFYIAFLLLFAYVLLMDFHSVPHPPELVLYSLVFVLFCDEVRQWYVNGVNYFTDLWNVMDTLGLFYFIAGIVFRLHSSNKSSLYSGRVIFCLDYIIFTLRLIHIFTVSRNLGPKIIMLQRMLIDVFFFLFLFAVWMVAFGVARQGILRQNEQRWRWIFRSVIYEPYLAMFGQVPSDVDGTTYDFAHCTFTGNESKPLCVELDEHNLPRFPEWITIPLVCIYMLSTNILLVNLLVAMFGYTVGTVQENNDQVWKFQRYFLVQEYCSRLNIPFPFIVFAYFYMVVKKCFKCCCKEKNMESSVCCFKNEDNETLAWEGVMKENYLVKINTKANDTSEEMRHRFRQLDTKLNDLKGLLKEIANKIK
The agonisation or antagonisation of the receptor can be quantified by means of a Ca^2+-sensitive dye (e.g. FURA, Fluo-4, etc.).
To begin with, in a manner known per se, in cell culture flasks a fresh culture of transformed HEK cells is prepared. The HEK293-TRPM8 test cells are removed using trypsin from the cell culture flasks and 40 000 cells/well are sown with 100 μl medium in 96-well plates (Greiner #655948 Poly-D-lysine coated). In order to induce the TRPM8 receptor the growth medium tetracycline is mixed in (DMEM/HG, 10% FCS tetracycline-free, 4 mM L-glutamine, 15 μg/ml blasticidin, 100 μg/ml hygromycin B, 1 μg/ml tetracycline). The next day the cells are charged with Fluo-4Am dye and the test is performed.
The test substances are used in triplicate in concentrations of between 0.1 and 200 μm in the assay. Normally the compounds are kept ready in DMSO solutions and diluted for the assay to a maximum DMSO concentration of 2%.

Usually EC50 stands for the concentration at which the effect is half-maximal. Lower therefore signals a more potent agent.

Structures are written as SMILES. Counter-ions that a name gives are not always drawn.

Take `COc1cccc(/C=C/C(=O)N(c2ccccc2)c2ccccc2)c1OC` [Compound 3-40]: the half-maximal effective concentration (EC50) (Table C, structure type 3) came out at 5.9 µM. This counts as single-digit micromolar.
Where the note is “Table C, structure type 3”, `COc1ccc(/C=C/C(=O)N(c2ccccn2)C2CCCCC2)cc1` [Compound 3-17, 4-methoxycinammic acid-N-cyclohexyl-N-2-pyridylamide] registered an EC50 of 0.4 µM.
For the compound `COc1ccc(C(=O)N(c2ccccn2)C2CCCCC2)cc1` [Compound 3-48], the 50% effective concentration (EC50) (Table C, structure type 3) stood at 10.9 µM.
In the case of `COc1cnc(-c2ccccn2)nc1NC1CCC1` [Compound 2-3, Cyclobutyl-(5-methoxy-2-pyridin-2-yl-pyrimidin-4-yl)-amine], the midpoint of the response (Table B, structure type 2), the EC50, lay at 0.8 µM.
As to `COc1ccc(/C=C/C(=O)N(Cc2ccccc2)c2ccccc2)cc1` [Compound 3-23], the 50% effective concentration (EC50) (Table C, structure type 3) came to 3.2 µM. In other words, the single-digit micromolar range.
`CC(C)N(Cc1ccccc1)C(=O)/C=C/c1ccc2c(c1)OCO2` [Compound 3-13] had an EC50 (Table C, structure type 3) of 3.9 µM.
For `CC1(C)CC(=O)C2=C(C1)N1CCc3ccccc3C1CC21SCCCS1` (stereo not drawn) [Compound 1-5, 2,3,4,5,6,10b,11,12-octahydro-3,3-dimethyl-spiro[4b-azachrysene-12,2′-[1,3]dithian]-1-one], the concentration for a half-maximal effect (EC50) (Table A, structure type 1) worked out at 1.4 µM.
For the setting “Table C, structure type 3”, `COc1ccc(OCC(=O)N(c2ccccn2)C2CCCCC2)cc1` [Compound 3-45] had an EC50 of 4 µM.
On the same count and under the same terms, the figure for `CCCN(C(=O)/C=C/c1ccc(OC)cc1)c1ccccc1` [Compound 3-21] is 1.7 µM.
The compound `COc1cnc(-c2ccccn2)nc1NC(C)C` [Compound 2-19, Isopropyl-(5-methoxy-2-pyridin-2-yl-pyrimidin-4-yl)-ammonium succinate] returned a half-maximal effective concentration (EC50) (Table B, structure type 2) of 0.3 µM.
Regarding `O=C(/C=C/c1ccc2c(c1)OCO2)N(c1ccccn1)C1CCCCC1` [Compound 3-1, (E)-3-benzo[1,3]dioxol-5-yl-N-cyclohexyl-N-pyridin-2-yl-acrylamide], for the setting “Table C, structure type 3”, a half-maximal effect (EC50) was put at 0.1 µM.
Same read-out and setting: the figure for `COc1ccc(/C=C/C(=O)N(c2ccccc2)C2CCCCC2)cc1` [Compound 3-19] is 0.7 µM; for `COc1ccc(/C=C/C(=O)N(c2ccccc2)C(C)C)cc1` [Compound 3-22] it is 1.3 µM; for `Cc1ccc(/C=C/C(=O)N(c2ccccn2)C2CCCCC2)cc1` [Compound 3-32, (E)-N-cyclohexyl-N-pyridin-2-yl-3-p-tolyl-acrylamide] it is 0.3 µM.
Still for that read-out and setting: the figure for `O=C(/C=C/c1ccc2c(c1)OCO2)N(Cc1ccccc1)c1ccccc1` [Compound 3-10] is 1.2 µM.
The compound `COc1cnc(-c2ccccc2)nc1N1CCOCC1` [Compound 2-13] returned a 50% effective concentration (EC50) (Table B, structure type 2) of 11.7 µM.
`COc1cccc(/C=C/C(=O)N(c2ccccc2)C2CCCCC2)c1OC` [Compound 3-39]: it took 2.6 µM to reach a half-maximal effect (Table C, structure type 3) (EC50).
In the case of `COc1cnc(-c2ccccn2)nc1NC(C)C` [Compound 2-22], the half-maximal effective concentration (EC50) (Table B, structure type 2) came out at 0.7 µM.
As for `Cc1cccc(/C=C/C(=O)N(c2ccccn2)C2CCCCC2)c1` [Compound 3-31, (E)-N-cyclohexyl-N-pyridin-2-yl-3-m-tolyl-acrylamide], the response (Table C, structure type 3) was half-maximal at 0.3 µM (EC50).
Where the note is “Table B, structure type 2”, `COc1cnc(-c2ccccn2)nc1NC(C)C` [Compound 2-15, Isopropyl-(5-methoxy-2-pyridin-2-yl-pyrimidin-4-yl)-ammonium citrate] registered an EC50 of 0.8 µM.
Take `CC1(C)CC(=O)C2=C(C1)N1CCc3ccccc3C1CC21SCCS1` (stereo not drawn) [Compound 1-2, 2,3,4,5,6,10b,11,12-octahydro-3,3-dimethyl-spiro[4b-azachrysene-12,2′-[1,3]dithiolan]-1-one]: for the setting “Table A, structure type 1”, the response was half-maximal at 0.6 µM (EC50).
`O=C(/C=C/c1ccccc1)N(c1ccccn1)C1CCCCC1` [Compound 3-25, Cinammic acid-N-cyclohexyl-N-2-pyridylamide] returned a concentration for a half-maximal effect (EC50) (Table C, structure type 3) of 2.3 µM.
As to `COc1ccc(/C=C/C(=O)N(Cc2ccccc2)c2ccccn2)cc1` [Compound 3-24], the EC50 (Table C, structure type 3) was 2.2 µM.
In the case of `O=C1CCCC2=C1C1(CC3c4ccccc4CCN23)SCCS1` (stereo not drawn) [Compound 1-1, 2,3,4,5,6,10b,11,12-octahydro-spiro[4b-azachrysene-12,2′-[1,3]dithioland-]-1-one], a half-maximal response (Table A, structure type 1) (EC50) required 0.1 µM.
`CCN(CC)C(=O)/C=C/c1ccc2c(c1)OCO2` [Compound 3-15] yielded a half-maximal effective concentration (EC50) (Table C, structure type 3) of 12.3 µM.
Under “Table C, structure type 3”, `CC(C1CC1)N(C(=O)/C=C/c1ccccc1)c1ccccc1` (stereo not drawn) [Compound 3-29] gave an EC50 of 0.8 µM. Compared with the last compound, the EC50 is about 15-fold lower.
Compound `COc1cnc(-c2ccccn2)nc1NC(C)C` [Compound 2-1, Isopropyl-(5-methoxy-2-pyridin-2-yl-pyrimidin-4-yl)-amine] gave a concentration for a half-maximal effect (EC50) (Table B, structure type 2) of 0.1 µM.
Under “Table A, structure type 1”, `CC1OC(=O)C2=C1N1CCc3ccccc3C1CC21SCCS1` (stereo not drawn) [Compound 1-3, 5,6,10b,11-tetrahydro-3-methyl-spiro[12H-benzo[a]furo[3,4-f]quinolizin-12,2′-[1,3]dithiolan]-1(3H)one] yielded an EC50 of 0.7 µM. This counts as sub-micromolar.
With `CCCCN(C(=O)/C=C/c1ccc2c(c1)OCO2)c1ccccc1` [Compound 3-9], the 50% effective concentration (EC50) (Table C, structure type 3) came out at 0.7 µM.
Still for that read-out and setting: the figure for `COc1ccc(/C=C/C(=O)N(c2ccccc2)c2ccccc2)cc1` [Compound 3-20, 4-methoxycinammic acid-N,N-diphenylamide] is 1.1 µM.
`COc1cnc(-c2ccccn2)nc1NC(C)C` [Compound 2-17, Isopropyl-(5-methoxy-2-pyridin-2-yl-pyrimidin-4-yl)-ammonium malate]: a half-maximal response (Table B, structure type 2) (EC50) required 0.4 µM.
Same read-out and setting: the figure for `COc1cnc(-c2ccccn2)nc1NC(C)C` [Compound 2-16, Isopropyl-(5-methoxy-2-pyridin-2-yl-pyrimidin-4-yl)-ammonium fumarate] is 1.6 µM.
With `CCN(Cc1ccccc1)C(=O)/C=C/c1ccc2c(c1)OCO2` [Compound 3-14], the EC50 (Table C, structure type 3) was determined as 1.5 µM.
Regarding `CCCN(C(=O)/C=C/c1ccc2c(c1)OCO2)c1ccccc1` [Compound 3-7], the EC50 (Table C, structure type 3) turned out to be 1.1 µM.
Under “Table B, structure type 2”, `COc1cnc(-c2ccccn2)nc1N1CCOCC1` [Compound 2-4] had a concentration for a half-maximal effect (EC50) of 1 µM.
Consider `CC(C)CN(C(=O)/C=C/c1ccc2c(c1)OCO2)c1ccc(Cl)cc1` [Compound 3-16], for which, for the setting “Table C, structure type 3”, a half-maximal response (EC50) required 8.2 µM.
Same read-out and setting: to `O=C(c1c(Cl)cccc1Cl)N(Cc1ccccc1)c1ccccn1` [Compound 3-49] belongs 5.5 µM.
Regarding `CCc1cnc(-c2ccccn2)nc1NC(C)C` [Compound 2-14, (5-ethyl-2-pyridin-2-yl-pyrimidin-4-yl)-isopropyl-amine], a half-maximal effect (Table B, structure type 2) (EC50) was put at 0.4 µM.
`O=C(COc1ccccc1)N(c1nccs1)C1CCCCC1` [Compound 3-46]: a half-maximal effect (Table C, structure type 3) (EC50) was put at 3 µM.
With `Cc1ccc(/C=C/C(=O)N(c2ccccc2)C(C)C)cc1` [Compound 3-36], the EC50 (Table C, structure type 3) worked out at 1.8 µM.
On the same count and under the same terms, the figure for `CCN(C(=O)/C=C/c1ccc2c(c1)OCO2)c1ccccn1` [Compound 3-11] is 6.2 µM.
As for `COc1cnc(-c2ccccn2)nc1NC(C)C` [Compound 2-20], the EC50 (Table B, structure type 2) was 0.9 µM.
Take `COc1ccc(/C=C/C(=O)N(C2CCCCC2)C2CCCCC2)cc1` [Compound 3-18, (E)-N,N-dicyclohexyl-3-(4-methoxy-phenyl)-acrylamide]: the midpoint of the response (Table C, structure type 3), the EC50, lay at 0.1 µM.
The same measure, in the same setting: the figure for `O=C(/C=C/c1ccc2c(c1)OCO2)N(c1ccccc1)c1ccccc1` [Compound 3-6, (E)-3-benzo[1,3]dioxol-5-yl-N,N-diphenyl-acrylamide] is 0.8 µM; for `O=C(/C=C/c1ccccc1)N(c1ccccc1)c1ccccc1` [Compound 3-27, Cinammic acid-N,N-diphenylamide] it is 2.9 µM; for `O=C(/C=C/c1ccccc1)N(Cc1ccccc1)c1ccccc1` [Compound 3-28] it is 2.4 µM.
For the compound `COc1cnc(-c2ccccn2)nc1NC(C)C` [Compound 2-18, Isopropyl-(5-methoxy-2-pyridin-2-yl-pyrimidin-4-yl)-ammonium tartrate], a half-maximal effect (Table B, structure type 2) (EC50) was put at 0.5 µM.
As for `C[C@H]1OC(=O)C2=C1N1CCc3ccccc3C1CC21[S+]([O-])CCS1(=O)=O` (stereo partly drawn) [Compound 1-7], under “Table A, structure type 1”, it took 0.7 µM to reach a half-maximal effect (EC50). This lies in the sub-micromolar range.
Compound `COc1cccc(/C=C/C(=O)N(c2ccccn2)C2CCCCC2)c1` [Compound 3-37] registered an EC50 (Table C, structure type 3) of 3 µM.
Regarding `Cc1ccccc1/C=C/C(=O)N(c1ccccn1)C1CCCCC1` [Compound 3-30], a half-maximal effect (Table C, structure type 3) (EC50) was put at 0.4 µM.
Still for that read-out and setting: to `O=C(COc1ccc2c(c1)OCO2)N(c1ccccc1)C1CCCCC1` [Compound 3-44] belongs 1 µM; to `O=C(CCc1ccc2c(c1)OCO2)N(c1ccccc1)c1ccccc1` [Compound 3-43], 6.8 µM.
For `CC(C)N(C(=O)/C=C/c1ccc2c(c1)OCO2)c1ccccc1` [Compound 3-8], where the note is “Table C, structure type 3”, the concentration for a half-maximal effect (EC50) worked out at 0.6 µM.
With `COCC(C)Nc1nc(-c2ccccn2)ncc1OC` (stereo not drawn) [Compound 2-10], the EC50 (Table B, structure type 2) was 2.2 µM.
The compound `O=C1CCCC2=C1C1(CC3c4ccccc4CCN23)SCCCS1` (stereo not drawn) [Compound 1-4, 2,3,4,5,6,10b,11,12-octahydro-spiro[4b-azachrysene-12,2′-[1,3]dithian]-1-one] came in with an EC50 (Table A, structure type 1) of 3.1 µM.
Turning to `Cc1ccccc1N(Cc1ccccc1)C(=O)Cc1ccccc1` [Compound 3-47], where the note is “Table C, structure type 3”, the concentration for a half-maximal effect (EC50) is 1.7 µM.
`O=C(/C=C/c1ccc2c(c1)OCO2)N(Cc1ccccc1)c1ccccn1` [Compound 3-12] returned an EC50 (Table C, structure type 3) of 0.7 µM.
The same measure, in the same setting: to `Cc1ccc(/C=C/C(=O)N(c2ccccc2)c2ccccc2)cc1` [Compound 3-34, 4-methylcinammic acid-N,N-diphenylamide] belongs 4 µM.
For `C[C@H]1OC(=O)C2=C1N1CCc3ccccc3C1CC2=O` (stereo partly drawn) [Compound 1-9], the response (Table A, structure type 1) was half-maximal at 10 µM (EC50).
Under “Table B, structure type 2”, `COc1cnc(-c2ccccn2)nc1NCC1CC1` [Compound 2-11] registered an EC50 of 1.2 µM.
